EC50 data for two molecules are collected here from patent publication US20080312305A1, “Imidazoles as Gaba- B Receptor Modulators” (priority 2005, published 2008).

For this test, the target named is T1, GABAB receptor (GABABR1a/GABABR2) (Homo sapiens, UniProt O75899+Q9UBS5).
T1 construct: expressed in transfected cells; membranes prepared from the cells
Nature of the test: [35S]-GTPγS binding assay, potency of positive allosteric modulator on GABA EC50. Type of test: biochemical. To be noted: potency of the positive allosteric modulator (log EC50 for GABA plotted against log modulator concentration). An excerpt: GABABR1a and GABABR2 were cloned from human brain cDNA and subcloned into pCI-Neo (Promega) and pALTER-1 (Promega), respectively. A GABABR1a-Gαqi5 fusion protein expression vector was constructed using the pCI-Neo-GABABR1a cDNA plasmid and pLEC1-Gαqi5 (Molecular Devices, Calif.). In order to make the Gαqi5 pertussis toxin insensitive, Cys356 was mutated to Gly using standard PCR methodology with the primers 5′-[…]-3′ (forward) and 5′-GCGGCCG […]-3′ (reverse). The Gαqi5mut cDNA was ligated into the BamHI and NotI sites of pcDNA3.0 (Invitrogen). The GABABR1a coding sequence was amplified by PCR from pCI-Neo-GABABR1a using the primers, 5′-[…]-3′ (forward) and 5′-[…]-3′ (reverse) and subcloned into the BamHI site of pcDNA3.0-Gαqi5mut.
For generation of stable cell lines, CHO-K1 cells were grown in Nut mix F-12 (Ham) media supplemented with 10% FBS, 100 U/ml Penicillin and 100 μg/ml Streptomycin at 37° C. in a humidified CO2-incubator. […]
[^35S]-GTPγS binding assays were performed at 30° C. for 45 min in membrane buffer (100 mM NaCl, […], 1 mM EDTA, 50 mM HEPES, pH 7.4) containing 0.025 μg/μl of membrane protein (prepared from the cell lines described above) with 0.01% bovine serum albumin (fatty acid free), 10 μM GDP, 100 μM DTT and 0.53 nM [^35S]-GTPγS (Amersham-Pharmacia Biotech) in a final volume of 200 μl. Non-specific binding was determined in the presence of 20 μM GTPγS. […]
Background: GTPγS resists hydrolysis and so accumulates on activated G proteins.

T1 sequence (Q9UBS5 15-961 limits assumed): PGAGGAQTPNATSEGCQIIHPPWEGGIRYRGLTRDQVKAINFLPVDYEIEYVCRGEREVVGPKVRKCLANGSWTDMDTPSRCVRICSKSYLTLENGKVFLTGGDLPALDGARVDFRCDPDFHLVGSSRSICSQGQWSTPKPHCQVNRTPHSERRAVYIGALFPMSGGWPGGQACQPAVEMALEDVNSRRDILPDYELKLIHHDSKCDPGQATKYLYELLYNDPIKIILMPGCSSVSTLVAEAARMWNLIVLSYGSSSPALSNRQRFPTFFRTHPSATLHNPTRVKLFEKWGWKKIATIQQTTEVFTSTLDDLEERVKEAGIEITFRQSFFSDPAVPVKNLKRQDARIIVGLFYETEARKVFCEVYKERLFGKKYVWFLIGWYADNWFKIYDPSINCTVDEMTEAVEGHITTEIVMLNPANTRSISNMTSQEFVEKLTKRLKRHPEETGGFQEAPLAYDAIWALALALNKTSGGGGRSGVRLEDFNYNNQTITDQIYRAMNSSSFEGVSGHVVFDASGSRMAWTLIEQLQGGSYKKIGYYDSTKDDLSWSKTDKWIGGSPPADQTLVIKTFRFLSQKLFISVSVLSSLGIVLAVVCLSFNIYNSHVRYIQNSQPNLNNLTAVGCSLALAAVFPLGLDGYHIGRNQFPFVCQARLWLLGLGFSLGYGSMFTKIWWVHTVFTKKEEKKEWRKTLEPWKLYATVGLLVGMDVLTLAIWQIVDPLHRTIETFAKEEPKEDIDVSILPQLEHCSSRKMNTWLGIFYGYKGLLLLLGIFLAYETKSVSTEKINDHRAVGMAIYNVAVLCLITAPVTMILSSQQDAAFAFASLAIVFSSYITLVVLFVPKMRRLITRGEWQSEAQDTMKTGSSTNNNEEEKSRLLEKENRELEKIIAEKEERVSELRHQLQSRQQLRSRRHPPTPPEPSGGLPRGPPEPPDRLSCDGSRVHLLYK
T1 sequence (O75899 42-941): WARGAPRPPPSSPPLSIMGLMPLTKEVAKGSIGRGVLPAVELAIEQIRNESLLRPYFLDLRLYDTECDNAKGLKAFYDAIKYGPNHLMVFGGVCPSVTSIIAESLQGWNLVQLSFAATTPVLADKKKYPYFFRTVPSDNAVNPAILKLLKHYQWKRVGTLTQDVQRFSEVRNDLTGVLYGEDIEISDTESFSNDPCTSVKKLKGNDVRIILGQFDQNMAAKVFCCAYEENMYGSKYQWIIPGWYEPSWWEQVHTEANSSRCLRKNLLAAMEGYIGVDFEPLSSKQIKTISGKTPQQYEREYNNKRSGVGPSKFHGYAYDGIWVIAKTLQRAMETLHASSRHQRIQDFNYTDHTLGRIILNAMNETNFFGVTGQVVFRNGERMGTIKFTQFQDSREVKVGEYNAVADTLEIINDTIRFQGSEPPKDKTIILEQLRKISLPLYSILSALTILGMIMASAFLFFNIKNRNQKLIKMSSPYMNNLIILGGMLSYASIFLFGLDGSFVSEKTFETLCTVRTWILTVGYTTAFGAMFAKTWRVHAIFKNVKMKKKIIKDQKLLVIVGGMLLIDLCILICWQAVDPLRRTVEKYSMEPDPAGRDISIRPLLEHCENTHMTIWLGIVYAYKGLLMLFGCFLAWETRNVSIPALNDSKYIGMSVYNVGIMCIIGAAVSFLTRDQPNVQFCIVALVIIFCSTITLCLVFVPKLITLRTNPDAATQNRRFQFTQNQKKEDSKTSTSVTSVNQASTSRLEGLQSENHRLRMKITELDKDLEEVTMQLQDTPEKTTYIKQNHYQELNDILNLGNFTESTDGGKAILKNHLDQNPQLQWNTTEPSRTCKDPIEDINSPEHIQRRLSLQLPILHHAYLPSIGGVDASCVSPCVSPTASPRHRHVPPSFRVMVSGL

In turn, `CCCc1nc(NC(=O)C2COc3ccccc3O2)c(C(=O)OC(C)(C)C)n1CC(C)C` (centres unmarked) [Example 21, Tert-butyl 4-[(2,3-dihydro-1,4-benzodioxin-2-ylcarbonyl)amino]-1-isobutyl-2-propyl-1H-imidazole-5-carboxylate] gave an EC50 of 3.68 µM.
Under `CCCc1nc(NC(=O)C2COc3ccccc3O2)c(C(=O)OCC)n1CC(C)C` (centres unmarked) [Example 25, Ethyl 4-[(2,3-dihydro-1,4-benzodioxin-2-ylcarbonyl)amino]-1-isobutyl-2-propyl-1H-imidazole-5-carboxylate] stands 5.54 µM.

Broadly, the EC50 is the midpoint of the concentration-response curve.
